From ChEMBL document CHEMBL2150933 (J Med Chem, 2012)
The source made the active and inactive calls. The rule behind the calls is not given here.

How the values were obtained:
A549 [1] = assay: Cytotoxicity against human A549 cells after 48 hrs by SRB assay; format: functional; conditions: A549, 48 h, read-out: pGI50 (converted)
BXPC-3 = assay: Cytotoxicity against human BxPC3 cells after 72 hrs by MTT assay; format: functional; conditions: BXPC-3, 72 h
COLO 205 [2] = assay: Cytotoxicity against human COLO205 cells after 72 hrs by MTT assay; format: functional; conditions: COLO 205, 72 h
A549 [3] = assay: Cytotoxicity against human A549 cells after 72 hrs by MTT assay; format: functional; conditions: A549, 72 h
COLO 205 [4] = assay: Cytotoxicity against human COLO205 cells after 48 hrs by SRB assay; format: functional; conditions: COLO 205, 48 h, read-out: pGI50 (converted)
[5] = Cytotoxicity against human 786-O cells after 48 hrs by SRB assay; format: functional; conditions: 786-0, 48 h
MDA-MB-231 = assay: Cytotoxicity against human MDA-MB-231 cells after 48 hrs by SRB assay; format: functional; conditions: MDA-MB-231, 48 h, read-out: pGI50 (converted)
SK-MEL-2 = assay: Antitumor activity against human SK-MEL-2 cells xenografted in athymic nu/nu Harlan mouse assessed as tumor growth inhibition at 8 mg/kg, ip administered Q4D for 3 days relative to control; format: functional, organism-based; design: dose 8 mg/kg

SMILES | GI50 (A549 [1]) | GI50 (BXPC-3) | GI50 (COLO 205 [2]) | GI50 (A549 [3]) | GI50 (COLO 205 [4]) | GI50 [5] | GI50 (MDA-MB-231) | TGI (SK-MEL-2)
CO[C@H](C(=O)C(C)=O)[C@@H]1Cc2cc3cc(O[C@H]4C[C@@H](O[C@H]5C[C@@H](O)[C@H](O)[C@@H](C)O5)[C@H](O)[C@@H](C)O4)c(C)c(O)c3c(O)c2C(=O)[C@H]1O[C@H]1C[C@@H](O[C@H]2C[C@@H](O)[C@H](O)[C@@H](C)O2)[C@H](O)[C@@H](C)O1 | 170 nM | 300 nM | 300 nM | 300 nM | 83.2 nM | 166 nM | 240 nM | 
COc1cccc2c1C(=O)c1c(O)c3c(c(O)c1C2=O)C[C@@](O)(C(=O)CO)C[C@@H]3O[C@H]1C[C@H](N)[C@H](O)[C@H](C)O1 |  |  |  |  |  |  |  | Active
